{"source": "patent US20240384353A1", "about": "“METHODS OF TREATING PANCREATIC CANCER” (Fred Hutchinson Cancer Center, priority 2023, published 2024)", "tested_on": "human PDA tumors", "test": "Median survival by HMGA2/GATA6 status (IHC, tissue microarray of human PDA tumors) and first-line therapy", "type": "in vivo", "conditions": "first-line therapy, FIG. 12A-12B", "procedure": "Expression levels of HMGA2 and GATA6 were determined separately in Tissue microarray comprising human PDA tumors from over 800 patients, along with matched (normal pancreatic tissue) controls and correlated to clinical data (stage at diagnosis, treatment history). These samples were stained and scored for HMGA2 (FIG. 9A) and GATA6."}
{"molecule": "Nc1ccn([C@@H]2O[C@H](CO)[C@@H](O)C2(F)F)c(=O)n1", "note": "[Gemcitabine]", "values": [{"measurement": "overall median survival of HMGA2^high/GATA6^low tumors compared to HMGA2^low/GATA6^high tumors", "value": "overall low median survival"}]}
